B1: ICAM-2: biochemically purified soluble human ICAM-2 protein from retrovirally transduced NIH3T3 cells; ICAM-2-FC fusion also used (protein, UniProt P13598 25-223, looked up)
extracellular domain: KVFEVHVRPKKLAVEPKGSLEVNCSTTCNQPEVGGLETSLDKILLDEQAQWKHYLVSNISHDTVLQCHFTCSGKQESMNSNVSVYQPPRQVILTLQPTLVAVGKSFTIECRVPTVEPLDSLTLFLFRGNETLHYETFGKAAPAPQEATATFNSTADREDGHRNFSCLAVLDLMSRGGNIFHKHSAPKMLEIYEPVSDSQ
modifications: extracellular domain
notes: biochemically purified soluble human ICAM-2 protein from retrovirally transduced NIH3T3 cells; ICAM-2-FC fusion also used

Columns and labels:
ezrin = test: phosphotyrosine-protein based elisa for ezrin tyrosine phosphorylation upon ICAM-2 ligation; format: cell-based, human; settings: Jurkat cells
Pyk2 = test: sICAM-2 induced Pyk2 phosphorylation (phospho-tyrosine based ELISA, chemical genetic approach); format: cell-based; settings: phospho-tyrosine based ELISA
How it was run: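 Chemical genetic approach: sICAM-2-stimulated cells treated with selected kinase/pathway inhibitors (PKC inhibitors BIM I, BIM II, staurosporine; tyrphostin A9; neomycin; piceatannol); phosphorylation status of Pyk2 and Syk measured by phospho-tyrosine ELISA.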

p44/42 MAPK = test: intracellular phospho-p44/42 MAPK by flow cytometry in ICAM-2 treated Jurkat cells; format: cell-based, human; settings: chemical agents 10 μM, EDTA 1 mM; mAbs titrated prior to ICAM-2
From the text: A) Mean fluorescent intensity values (MFI) of ICAM-2-FITC (adhesion) and mAb24-Alexa633, (LFA-1, activation) in treated Jurkat cells (as above). Control unstimulated and/or compound pretreated values were subtracted. B) Top panel: Intracellular phospho-p44/42, MAPK detection as a function of ICAM-2, dose in Jurkat cells by flow cytometry (see Material and Methods). Mean fluorescent intensity values (MFI) were plotted±standard deviation (SD). Bottom panel: ICAM-2, treated Jurkat cells were stained for intracellular phospho-p44/42, MAPK as described above. mAbs to β2, and αL, integrins (10, μg/ml, 10, minutes) were titrated prior to ICAM-2, treatment as indicated and plotted for MFI±SD. C) ICAM-2, induced p44/42, MAPK activity is blocked by β2, and αL, integrin antibodies as determined by a p44/42 MAPK kinase assay. Conditions for induction and inhibition are as described above. Recombinant active p44/42, MAPK served as an internal positive control (denoted by “+”). D) Inhibition and activation profile for intracellular phospho-p44/42, by flow cytometry in the presences of chemical agents (10, μM), EDTA (1, mM), or PMA, ionomycin and ICAM-2, stimulus (as indicated above). MFI values±SD are plotted.
Intracellular and extracellular staining was performed as described (Perez and Nolan, 2002). Intracellular probes for active kinases were made by conjugating phospho-specific antibodies to the ALEXA FLUOR® dye series as described and used in phospho-protein optimized conditions (Perez and Nolan, 2002). Kinetic analyses was performed by direct application of fixation buffer in time synchronized 96-wells maintained at 37° C. Intracellular actin and microtubule staining was performed using phalloidin-Alexa633 and taxol-Alexa546 dyes (Molecular Probes). Adhesion and clustering assays were performed using ICAM-2-FITC as described in text. LFA-1 activation was assessed by either mAb24-Alexa633 or mAb24-Alexa546 conjugate, surface stained at 37° C. Flow cytometry data are representative of 3 independent experiments of 10^6 cells/sample. 10-50,000 events were collected and manually calibrated on a FACSCalibur™ machine. Data plotted in bar graph format is expressed as geometric mean fluorescence intensity (MFI) and normalized for isotype controls. Log ratios are defined as the MFI of stimulus to the MFI of unstimulated cells. Data was analyzed using Flowjo™ software (Treestar).

LFA-1 = LFA-1 (Homo sapiens, UniProt P20701); settings: cited from earlier work
Chain of LFA-1 (P20701 26-1170): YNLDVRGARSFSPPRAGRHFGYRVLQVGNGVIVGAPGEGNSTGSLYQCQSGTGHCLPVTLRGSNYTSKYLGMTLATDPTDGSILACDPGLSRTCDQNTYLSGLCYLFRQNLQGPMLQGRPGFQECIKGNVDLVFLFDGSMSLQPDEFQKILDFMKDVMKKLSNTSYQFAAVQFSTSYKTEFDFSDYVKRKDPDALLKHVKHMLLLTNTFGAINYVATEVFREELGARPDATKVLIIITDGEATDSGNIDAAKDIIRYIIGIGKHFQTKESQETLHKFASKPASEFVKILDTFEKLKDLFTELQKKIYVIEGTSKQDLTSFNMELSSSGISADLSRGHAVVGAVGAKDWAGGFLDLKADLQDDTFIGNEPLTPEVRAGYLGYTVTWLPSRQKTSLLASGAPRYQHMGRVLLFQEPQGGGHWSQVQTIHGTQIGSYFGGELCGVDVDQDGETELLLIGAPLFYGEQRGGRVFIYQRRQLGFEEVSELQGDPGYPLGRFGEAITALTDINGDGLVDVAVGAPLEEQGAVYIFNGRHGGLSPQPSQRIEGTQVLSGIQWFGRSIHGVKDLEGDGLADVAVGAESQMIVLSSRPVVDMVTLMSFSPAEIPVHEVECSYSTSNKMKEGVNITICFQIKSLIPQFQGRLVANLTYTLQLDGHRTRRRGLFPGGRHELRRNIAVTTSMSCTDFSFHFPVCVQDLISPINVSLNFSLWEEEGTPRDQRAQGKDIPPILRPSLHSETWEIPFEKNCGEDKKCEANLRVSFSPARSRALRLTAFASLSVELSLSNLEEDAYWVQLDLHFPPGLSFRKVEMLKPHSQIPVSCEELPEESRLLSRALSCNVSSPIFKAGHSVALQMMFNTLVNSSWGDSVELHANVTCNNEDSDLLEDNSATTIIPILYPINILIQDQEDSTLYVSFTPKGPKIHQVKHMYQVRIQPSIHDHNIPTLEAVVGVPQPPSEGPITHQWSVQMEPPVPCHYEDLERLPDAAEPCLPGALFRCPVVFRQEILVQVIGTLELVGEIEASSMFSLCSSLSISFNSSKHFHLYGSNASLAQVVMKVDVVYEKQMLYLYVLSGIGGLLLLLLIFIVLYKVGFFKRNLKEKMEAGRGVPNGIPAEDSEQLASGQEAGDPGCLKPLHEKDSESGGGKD
Chain of LFA-1 (P05107 23-769 partner): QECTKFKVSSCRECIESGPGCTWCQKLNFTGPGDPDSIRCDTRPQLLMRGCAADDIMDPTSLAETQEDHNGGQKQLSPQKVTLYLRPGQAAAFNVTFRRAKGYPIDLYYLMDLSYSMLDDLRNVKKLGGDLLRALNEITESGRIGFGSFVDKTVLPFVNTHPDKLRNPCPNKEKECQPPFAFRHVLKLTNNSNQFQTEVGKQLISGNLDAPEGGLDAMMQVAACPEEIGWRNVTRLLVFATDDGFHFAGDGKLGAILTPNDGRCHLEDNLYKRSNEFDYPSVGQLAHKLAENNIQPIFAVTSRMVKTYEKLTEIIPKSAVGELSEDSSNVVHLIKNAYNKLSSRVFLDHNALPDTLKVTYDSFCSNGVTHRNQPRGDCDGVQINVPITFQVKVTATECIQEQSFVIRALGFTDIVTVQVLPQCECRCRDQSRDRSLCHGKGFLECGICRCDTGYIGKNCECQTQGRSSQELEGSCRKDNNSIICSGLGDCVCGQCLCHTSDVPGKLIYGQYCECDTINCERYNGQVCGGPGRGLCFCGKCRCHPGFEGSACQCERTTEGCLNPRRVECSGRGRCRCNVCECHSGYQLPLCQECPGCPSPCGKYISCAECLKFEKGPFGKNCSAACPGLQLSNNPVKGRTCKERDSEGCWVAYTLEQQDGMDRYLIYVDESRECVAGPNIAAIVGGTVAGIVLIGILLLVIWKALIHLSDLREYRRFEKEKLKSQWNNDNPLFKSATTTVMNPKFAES

| Molecule | tyrosine phosphorylation of ezrin (ezrin) | sICAM-2 induced Pyk2 phosphorylation (Pyk2) | effect on ICAM-2 induced p44/42 MAPK phosphorylation (p44/42 MAPK) | concentration inducing LFA-1 mediated adhesion (LFA-1; bulk cellular adhesion assay) | fold lower ICAM-2 soluble protein concentration compared with P1 (LFA-1) |
| --- | --- | --- | --- | --- | --- |
| CN(C)CCCn1cc(C2=C(c3c[nH]c4ccccc34)C(=O)NC2=O)c2ccccc21 [bisindolymaleimide I] | minor affects | affected | diminished |  |  |
| B1 |  |  |  | 1.3 µM | 48 fold |

— US8962263B2, “Methods and compositions for detecting the activation state of multiple proteins in single cells” (The Board of Trustees of the Leland Stanford Junior …, priority 2001, dated 2015)
